Assay results taken from patent publication US20090030037A1, “Sustained Release Formulation and Dosing Schedules of Leukotriene Synthesis Inhibitor for Human Therapy” (deCODE Genetics ehf., priority 2005, published 2009).

Columns and labels:
Type in all cases: in vivo, human
[1] = Study DG-031-204: serum creatinine; details: both 500 mg BID and 500 mg TID groups
Procedure: (§1) An additional single site, open label study was carried out to obtain biomarker and safety data on additional DG-031 doses (i.e., 1000 mg and 1500 mg). This study examined the safety, tolerability and dose-related effects of DG-031 on inflammatory biomarkers including: LTB4, hsCRP, and MPO. A total of 119 patients with a prior history of CAD and MI were randomized to receive either 1000 mg DG-031 (500 mg BID) or 1500 mg DG-031 (500 mg TID) daily for 4-6 weeks. Treatment with DG-031 in addition to the subject's standard care, medication, and treatment, was prescribed by the patient's cardiologist. A majority of the subjects received statin therapy before, during and after the study. Follow-up assessments were performed 2 weeks after the end of study drug administration.
Liver function tests (AST, ALT, GGT) were assessed weekly during study drug administration and two weeks after dosing. […] Serum creatinine (Cr) was measured weekly during study drug administration and two weeks after dosing. In both the 500 mg BID and 500 mg TID treatment groups, mean serum Cr concentrations increased 4-5% relative to baseline levels. At the 2-week follow up visit, mean serum Cr returned to baseline in the cohort treated for 4 weeks, but remained elevated in the group treated for 6 weeks. Creatine kinase (CK) measurements were obtained weekly during study drug administration and two weeks after dosing.

Lp-PLA2 = assay: Study DG-031-201: Lp-PLA2; details: 2 lower doses (250 mg/day and 500 mg/day)
Procedure: Genet. 2004). Apart from FLAP, allele A of the SNP SG12S25 in the LTA4 hydrolase gene, another gene in the LT pathway, is also associated with MI, as described in PCT application no. PCT/US03/32556 and PCT/US04/30582 incorporated by reference.
Patients who met the study eligibility criteria were enrolled and randomized into 3 different dose-level groups: (1) 64 patients on 250 mg/day therapy with DG-031 (250 mg q.d.), vs placebo; (2) 64 patients on 500 mg/day therapy with DG-031 (250 mg b.i.d.) vs placebo; and (3) 63 patients on 750 mg/day therapy with DG-031 (250 mg t.i.d.) vs placebo. […] All patients received 3 tablets per day. Treatment periods, 4 weeks in duration each, were separated by a 2-week washout period. The placebo tablets were identical in shape, color, form and taste to the active tablets except that they contained no active drug ingredients. Treatment with DG-031 or placebo was in addition to the subject's standard care, including all medications and treatment plan as prescribed by the subject's cardiologist prior to enrolment. […]
All data were analyzed according to a pre-established statistical analysis plan (SAP) and by intention-to-treat (ITT). […] The difference between DG-031 and placebo treatment was the primary outcome, assessed separately for each of the biomarkers. […]

Prostaglandin F = assay: Study DG-031-204: Prostaglandin F (PGF); details: after 4 weeks of treatment
Procedure: as §1
(§2) The biomarkers were analyzed as described in Example 1. Statistical analysis of the data was carried out using a one-sample t-test on change from baseline with a two-sided nominal significance level of 0.050. Biomarker concentrations were log-transformed and a simple last observation carried forward (LOCF) scheme was used to impute missing observations.
Prostaglandin F (PGF) was measured at 2-week intervals.

MPO = assay: Study DG-031-204: plasma MPO; details: for Serum MPO (% change from baseline), mean response: after 4 weeks of DG-031 administration
Procedure: as §1, §2
Plasma MPO concentration was measured weekly. MPO measurements in ionomycin-stimulated whole blood were also measured in a subset of patients at 4 weeks.

Q: Which “Increase of mean serum Cr concentrations relative to baseline” value [1] does the source give for `O=C(O)[C@@H](c1ccc(OCc2ccc3ccccc3n2)cc1)C1CCCC1` [DG-031, (R)-(+)-alpha-cyclopentyl-4-(2-quinolinylmethoxy)-Benzeneacetic acid] here?
A: 4-5%

Q: What about the “Effects on Lp-PLA2” value (Lp-PLA2) of the same molecule?
A: not significant

Q: What about the “Trends in PGF” value (Prostaglandin F) of the same molecule?
A: No significant trends

Q: And the “Plasma MPO concentrations, change from baseline” value (MPO; 500 mg BID or TID, measured weekly)?
A: No changes from baseline

Q: What about the “Serum MPO (% change from baseline), mean response” value (MPO; 1000 mg (500 mg BID)) of the same molecule?
A: +3%

Q: What about the “Serum MPO (% change from baseline), mean response” value (MPO; 1500 mg (500 mg TID)) of the same molecule?
A: −12%
